Data: patent publication US10696692B2, “Amido-benzyl sulfone and sulfoxide derivates” (Forma TM, LLC, priority 2012, dated 2020)
Read-outs that look alike come from different tables or passages of the source.

Tests used:
A2780 cells = experiment: Assay 2: In-Vitro Cell Proliferation Assay (A2780 cells, SRB readout, 72 hours); assay type: cell-based; settings: A2780 cells, 72 hours, SRB, read-out: Cell Proliferation (IC50);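 note: viable cells counted via sulforhodamine B staining, absorbance at 570 nm, after 72 h exposure at 37 °C, DMSO 0.1% as control, media-only background subtracted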
NAMPT = NAMPT (Homo sapiens (Human), UniProt P43490); experiment: Assay 1: Biochemical Inhibition Assay (NAMPT enzymatic reaction, NMN quantified by mass spectrometry); settings: read-out: Biochemical (IC50);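 note: recombinant His-tagged human NAMPT preincubated with compound 15 min, then reacted 30 min at rt with 1 µM NAM, 100 µM PRPP, 2.5 mM ATP, NMN product read by RapidFire MS, normalized to L-Cystathionine internal standard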
Chain of NAMPT (P43490 whole entry): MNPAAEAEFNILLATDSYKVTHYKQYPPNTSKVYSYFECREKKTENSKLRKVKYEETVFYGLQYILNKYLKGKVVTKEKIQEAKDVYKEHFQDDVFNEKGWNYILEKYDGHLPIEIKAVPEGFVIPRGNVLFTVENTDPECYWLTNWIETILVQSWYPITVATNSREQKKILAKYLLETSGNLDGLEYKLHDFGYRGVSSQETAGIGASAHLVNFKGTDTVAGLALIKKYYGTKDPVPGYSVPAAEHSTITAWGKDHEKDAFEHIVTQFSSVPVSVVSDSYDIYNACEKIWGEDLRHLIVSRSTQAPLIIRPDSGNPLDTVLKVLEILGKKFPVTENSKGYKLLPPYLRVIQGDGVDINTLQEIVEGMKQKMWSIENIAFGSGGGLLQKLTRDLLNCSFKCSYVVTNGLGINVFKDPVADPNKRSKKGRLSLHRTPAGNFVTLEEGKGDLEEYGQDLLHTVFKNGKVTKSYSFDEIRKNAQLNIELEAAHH

Row | Compound | IC50 (A2780 cells; Homo sapiens, A2780, 72 h) | IC50 (NAMPT) | IC50 (A2780 cells)
1 | O=C(NCc1ccc(S(=O)(=O)N2CC3CCC(C2)O3)cc1)c1cnc2[nH]ncc2c1 [Example 27, 1H-Pyrazolo[3,4-b]pyridine-5-carboxylic acid 4-(8-oxa-3-aza-bicyclo[3.2.1]octane-3-sulfonyl)-benzylamide] | 132 nM | 142 nM | –
2 | O=C(NCc1ccc(S(=O)(=O)C2CCOCC2)cc1)c1ccc2nccn2c1 [Example 200, N-[(4-tetrahydropyran-4-ylsulfonylphenyl)methyl] imidazo[1,2-a]pyridine-6-carboxamide] | 14.2 nM | 34.5 nM | –
3 | O=C(NCc1ccc(S(=O)(=O)N2CCC(F)(F)C2)cc1)c1cc2ccncc2o1 [Example 300, N-[[4-(3,3-difluoropyrrolidin-1-yl)sulfonylphenyl]methyl]furo [2,3-c]pyridine-2-carboxamide] | 21.5 nM | 21.4 nM | –
4 | O=C(NCc1ccc(S(=O)(=O)N2CCCCC2)cc1)c1ccn2cncc2c1 [Example 308, N-[[4-(1-piperidylsulfonyl)phenyl]methyl]imidazo[1,5-a]pyridine-7-carboxamide] | 2000 nM | 1420 nM | –
5 | CCCN1CCC([S@+]([O-])c2ccc(CNC(=O)c3cc4ccncc4o3)cc2)CC1 [Example 383, N-[[4-[(S)-(1-propyl-4-piperidyl)sulfinyl]phenyl]methyl]furo[2,3-c]pyridine-2-carboxamide] | – | 35.7 nM | 6.46 nM
6 | CN1CCN(C(=O)C2CN(S(=O)(=O)c3ccc(CNC(=O)c4ccc5nccn5c4)cc3)C2)CC1 [Example 246, N-[[4-[3-(4-methylpiperazine-1-carbonyl)azetidin-1-yl]sulfonylphenyl]methyl] imidazo[1,2-a]pyridine-6-carboxamide] | 27.3 nM | 7.03 nM | –
7 | O=C(NCc1ccc(S(=O)(=O)N2CCN(CC(F)(F)F)CC2)cc1)c1ccc2nccn2c1 [Example 25, Imidazo[1,2-a]pyridine-6-carboxylic acid 4-[4-(2,2,2-trifluoro-ethyl)-piperazine-1-sulfonyl]-benzylamide] | 10.5 nM | 24.2 nM | –
8 | O=C(NCc1ccc(S(=O)(=O)N2CCOCC2)cc1)c1cnc2nccn2c1 [Example 15, Imidazo[1,2-a]pyrimidine-6-carboxylic acid 4-(morpholine-4-sulfonyl)-benzylamide] | 624 nM | 6.8 nM | –
9 | O=C(NCc1ccc(S(=O)(=O)N2CCC(CO)CC2)cc1)c1ccc2nccn2c1 [Example 96, Imidazo[1,2-a]pyridine-6-carboxylic acid 4-(4-hydroxymethyl-piperidine-1-sulfonyl)-benzylamide] | 9.4 nM | 24.7 nM | –
10 | O=C(NCc1ccc(S(=O)(=O)N2CCC3(CCNC3)C2)cc1)c1ccc2nccn2c1 (stereo not drawn) [Example 262, N-[[4-(2,7-diazaspiro[4.4]nonan-2-ylsulfonyl)phenyl]methyl] imidazo[1,2-a]pyridine-6-carboxamide] | 106 nM | 64.9 nM | –
11 | O=C(NCc1ccc(S(=O)(=O)N2CC3CNCC3C2)cc1)c1ccc2nccn2c1 (stereo not drawn) [Example 329, N-[[4-(2,3,3a,4,6,6a-hexahydro-1H-pyrrolo[3,4-c]pyrrol-5-yIsulfonyl)phenyl]methyl] imidazo[1,2-a]pyridine-6-carboxamide] | 93.3 nM | 79.3 nM | –
12 | O=C(NCc1ccc(S(=O)(=O)N2C[C@@H]3CCO[C@@H]3C2)cc1)c1cnc2[nH]ncc2c1 (racemic) [Example 178, cis-1H-Pyrazolo[3,4-b]pyridine-5-carboxylic acid 4-(hexahydro-furo[2,3-c]pyrrole-5-sulfonyl)-benzylamide] | 172 nM | 133 nM | –
13 | CC(C)(C)OC(=O)N1CCC2(CCCN(S(=O)(=O)c3ccc(CNC(=O)c4ccc5nccn5c4)cc3)C2)CC1 [Example 131, 2-(4-{[(Imidazo[1,2-a]pyridine-6-carbonyl)-amino]-methyl}-benzenesulfonyl)-2,9-diaza-spiro[5.5]undecane-9-carboxylic acid tert-butyl ester] | 5.8 nM | 40.4 nM | –
14 | COCCN1CCN(S(=O)(=O)c2ccc(CNC(=O)c3ccc4nccn4c3)cc2)CC1 [Example 98, Imidazo[1,2-a]pyridine-6-carboxylic acid 4-[4-(2-methoxy-ethyl)-piperazine-1-sulfonyl]-benzylamide] | 10.1 nM | 46.1 nM | –
15 | CC(=O)N1CCC(S(=O)(=O)c2ccc(CNC(=O)c3cnc4nccn4c3)cc2)CC1 [Example 229, N-[[4-[(1-acetyl-4-piperidyl)sulfonyl]phenyl]methyl]imidazo[1,2-a]pyrimidine-6-carboxamide] | 527 nM | 5.12 nM | –
16 | NC1CCN(S(=O)(=O)c2ccc(CNC(=O)c3ccc4nccn4c3)cc2)CC1 [Example 317, N-[[4-[(4-amino-1-piperidyl)sulfonyl]phenyl]methyl]imidazo[1,2-a]pyridine-6-carboxamide] | 87.7 nM | 82.1 nM | –
17 | Imidazo[1,2-a]pyridine-6- carboxylic acid 4-[4- (tetrahydro-pyran-4-yl)- piperazine-1-sulfonyl]- benzylamide [Example 59] | – | 10.7 nM | 3 nM

Row | Compound | IC50 (A2780 cells; Homo sapiens, A2780, 72 h) | IC50 (NAMPT) | IC50 (A2780 cells)
18 | O=C(NCc1ccc(S(=O)(=O)C2CCN(C3CCOCC3)CC2)cc1)c1cnc2nccn2c1 [Example 224, N-[[4-[(1-tetrahydropyran-4-yl-4-piperidyl)sulfonyl]phenyl]methyl]imidazo[1,2-a]pyrimidine-6-carboxamide] | 47.9 nM | 3.98 nM | –
19 | CC(C)CN1CCC([S+]([O-])c2ccc(CNC(=O)c3ccc4nccn4c3)cc2)CC1 (racemic) [Example 187, N-(4-(1-isobutylpiperidin-4-ylsulfinyl)benzyl)H-imidazo[1,2-a]pyridine-6-carboxamide] | 5.8 nM | 14.2 nM | –
20 | CN1CCN(S(=O)(=O)c2ccc(CNC(=O)c3ccc4nccn4c3)cc2)CC1 [Example 17, Imidazo[1,2-a]pyridine-6-carboxylic acid 4-(4-methyl-piperazine-1-sulfonyl)-benzylamide] | 53.4 nM | 101 nM | –
21 | O=C(NCc1ccc(S(=O)(=O)N2CCC[C@H](O)C2)cc1)c1cc2cnccc2[nH]1 [Example 52, 1H-Pyrrolo[3,2-c]pyridine-2-carboxylic acid 4-((S)-3-hydroxy-piperidine-1-sulfonyl)-benzylamide] | 18.6 nM | 27.6 nM | –
22 | NCC12CC(CN1S(=O)(=O)c1ccc(CNC(=O)c3ccc4nccn4c3)cc1)C2 [Example 328, N-[[4-[[4-(aminomethyl)-3-azabicyclo[2.1.1]hexan-3-yl]sulfonyl]phenyl]methyl) imidazo[1,2-a]pyridine-6-carboxamide] | 2000 nM | 1680 nM | –
23 | CC(C)(C)OC(=O)N1CCC2(CCCN2S(=O)(=O)c2ccc(CNC(=O)c3ccc4nccn4c3)cc2)CC1 [Example 185, 1-(4-{[(Imidazo[1,2-a]pyridine-6-carbonyl)-amino]-methyl}-benzenesulfonyl)-1,8-diaza-spiro[4.5]decane-8-carboxylic acid tert-butyl ester] | 118 nM | 283 nM | –
24 | O=C(NCc1ccc(S(=O)(=O)N2CCCC23CCNCC3)cc1)c1ccc2nccn2c1 [Example 331, N-[[4-(1,8-diazaspiro[4.5]decan-1-ylsulfonyl)phenyl]methyl] imidazo[1,2-a]pyridine-6-carboxamide] | 774 nM | 355 nM | –
25 | O=C(NCc1ccc(S(=O)(=O)N2CCCCC2)cc1)c1ccc2ncnn2c1 [Example 45, [1,2,4]Triazolo[1,5-a]pyridine-6-carboxylic acid 4-(piperidine-1-sulfonyl)-benzylamide] | 1000 nM | 17.2 nM | –
26 | CC(C)N1CCC([S+]([O-])c2ccc(CNC(=O)c3cnc4[nH]ncc4c3)cc2)CC1 (stereo not drawn) [Example 366, N-[[4-[(1-isopropyl-4-piperidyl)sulfinyl]phenyl]methyl]-1H-pyrazolo[3,4-b]pyridine-5-carboxamide] | 77.6 nM | 29 nM | –
27 | O=C(NCc1ccc(S(=O)(=O)N2CC3CCOC3C2)cc1)c1ccc2nccn2c1 (stereo not drawn) [Example 72, Imidazo[1,2-a]pyridine-6-carboxylic acid 4-(hexahydro-furo[2,3-c]pyrrole-5-sulfonyl)-benzylamide] | 5.7 nM | 14.3 nM | –
28 | O=C(NCc1ccc(S(=O)(=O)N2CCC[C@H](O)C2)cc1)c1ccc2nccn2c1 [Example 54, Imidazo[1,2-a]pyridine-6-carboxylic acid 4-((S)-3-hydroxy-piperidine-1-sulfonyl)-benzylamide] | 11.4 nM | 15.6 nM | –
29 | O=C(NCc1ccc(S(=O)(=O)N2CCC(CO)CC2)cc1)c1cc2ccncc2o1 [Example 299, N-[[4-[[4-(hydroxymethyl)-1-piperidyl]sulfonyl]phenyl]methyl]furo[2,3-c]pyridine-2-carboxamide] | 11.1 nM | 24.4 nM | –
30 | O=C(NCc1ccc(S(=O)(=O)N2CCC(O)CC2)cc1)c1cnc2nccn2c1 [Example 29, Imidazo[1,2-a]pyrimidine-6-carboxylic acid 4-(4-hydroxy-piperidine-1-sulfonyl)-benzylamide] | 545 nM | 7.5 nM | –
31 | O=C(NCc1ccc([S+]([O-])C2CCN(CC(F)(F)F)CC2)cc1)c1cnc2[nH]ncc2c1 (stereo not drawn) [Example 367, N-[[4-[[1-(2,2,2-trifluoroethyl)-4-piperidyl)sulfinyl]phenyl]methyl]-1H-pyrazolo[3,4-b]pyridine-5-carboxamide] | 15 nM | 88.1 nM | –
32 | O=C(NCc1ccc(S(=O)(=O)N2CCC3(CCNC3=O)C2)cc1)c1cnc2[nH]ncc2c1 (stereo not drawn) [Example 282, N-[[4-[(1-oxo-2,7-diazaspiro[4.4]nonan-7-yl)sulfonyl)phenyl]methyl]-1H-pyrazolo[3,4-b]pyridine-5-carboxamide] | 233 nM | 101 nM | –
33 | CC(C)(C)OC(=O)N1CCC2(CC1)CN(S(=O)(=O)c1ccc(CNC(=O)c3ccc4nccn4c3)cc1)CCO2 [Example 124, 4-(4-{[(Imidazo[1,2-a]pyridine-6-carbonyl)-amino]-methyl}-benzenesulfonyl)-1-oxa-4,9-diaza-spiro[5.5]undecane-9-carboxylic acid tert-butyl ester] | 4.65 nM | 40.5 nM | –
